Assays:
ALOMY [1] = test: Post-emergence action against ALOMY, 320 g/ha; type: in vivo, Alopecurus myosuroides; details: dosage 320 g/ha, visual rating about 3 weeks after treatment vs untreated controls (100% = plants died)
Description: (§1) Accordingly, the compounds of the invention have good herbicidal action against a broad spectrum of weed grasses and broad-leaved weeds and are therefore suitable for controlling unwanted vegetation by the post-emergence method. • b) Seeds of monocotyledonous and dicotyledonous weeds and crop plants are placed in sandy loam in plastic or organic planting pots, covered with soil and cultivated in a greenhouse under controlled growth conditions. 2 to 3 weeks after sowing, the test plants are treated at the one-leaf stage. The compounds of the invention, formulated in the form of wettable powders (WP) or as emulsion concentrates (EC), are then sprayed onto the green parts of the plants as aqueous suspension or emulsion with addition of 0.5% additive at a water application rate of 600 l/ha (converted). After the test plants have been kept in the greenhouse under optimum growth conditions for about 3 weeks, the activity of the preparations is rated visually in comparison to untreated controls. For example, 100% activity=the plants have died, 0% activity=like control plants. Tables 39 to 49 below show the effects of selected compounds of the general formula (I) according to Tables 1 and 2 on various harmful plants and at an application rate corresponding to 320 g/ha, which were obtained by the experimental procedure mentioned above.

POLCO [2] = test: Pre-emergence action at 320 g/ha against POLCO; type: in vivo, Fallopia convolvulus (Polygonum convolvulus); details: visual scoring after about 3 weeks vs untreated controls
In short: (§2)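 Pre-emergence soil-surface spray: WP or EC formulation, aqueous, 0.5% additive, 600 l/ha water volume. Greenhouse growth about 3 weeks; visual percent effect relative to untreated pots.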

VIOTR [3] = test: Post-emergence action at 320 g/ha against VIOTR; type: in vivo, Viola tricolor; details: Viola tricolor, 504 h, visual rating about 3 weeks after treatment vs untreated controls
Description: as §1

AMARE [4] = test: Post-emergence action at 320 g/ha against AMARE; type: in vivo, Amaranthus retroflexus; details: Amaranthus retroflexus, 504 h, visual rating about 3 weeks after treatment vs untreated controls
Description: as §1

SETVI [5] = test: Pre-emergence action at 320 g/ha against SETVI; type: in vivo, Setaria viridis; details: Setaria viridis, 504 h, visual scoring after about 3 weeks vs untreated controls
In short: as §2

SETVI [6] = test: Post-emergence action at 320 g/ha against SETVI; type: in vivo, Setaria viridis; details: visual rating about 3 weeks after treatment vs untreated controls
Description: as §1

VIOTR [7] = test: Pre-emergence action at 320 g/ha against VIOTR; type: in vivo, Viola tricolor; details: dosage 320 g/ha
In short: as §2

LOLRI [8] = test: Pre-emergence action at 320 g/ha against LOLRI; type: in vivo, Lolium rigidum; details: visual scoring after about 3 weeks vs untreated controls
In short: as §2

ECHCG [9] = test: Post-emergence action at 320 g/ha against ECHCG; type: in vivo, Echinochloa crus-galli; details: dosage 320 g/ha, visual rating about 3 weeks after treatment vs untreated controls (100% = plants died)
Description: as §1

AMARE [10] = test: Pre-emergence action at 320 g/ha against AMARE; type: in vivo, Amaranthus retroflexus; details: visual scoring after about 3 weeks vs untreated controls
In short: as §2

MATIN [11] = test: Pre-emergence action at 320 g/ha against MATIN; type: in vivo, Tripleurospermum inodorum (Matricaria inodora); details: visual scoring after about 3 weeks vs untreated controls
In short: as §2

ALOMY [12] = test: Pre-emergence action at 320 g/ha against ALOMY; type: in vivo, Alopecurus myosuroides; details: scored visually after about 3 weeks vs untreated controls (100% = plants have died)
In short: as §2

POLCO [13] = test: Post-emergence action at 320 g/ha against POLCO; type: in vivo, Fallopia convolvulus (Polygonum convolvulus); details: Fallopia convolvulus, 504 h, visual rating about 3 weeks after treatment vs untreated controls
Description: as §1

AVEFA [14] = test: Post-emergence action at 320 g/ha against AVEFA; type: in vivo; details: Avena fatua, 504 h, visual rating about 3 weeks after treatment vs untreated controls
Description: as §1

DIGSA [15] = test: Pre-emergence action at 320 g/ha against DIGSA; type: in vivo, Digitaria sanguinalis; details: visual scoring after about 3 weeks vs untreated controls
In short: as §2

DIGSA [16] = test: Post-emergence action at 320 g/ha against DIGSA; type: in vivo, Digitaria sanguinalis; details: Digitaria sanguinalis, 504 h, dosage 320 g/ha, visual rating about 3 weeks after treatment vs untreated controls (100% = plants died)
Description: as §1

MATIN [17] = test: Pre-emergence action against MATIN, 1280 g/ha; type: in vivo, Tripleurospermum inodorum (Matricaria inodora); details: scored visually after about 3 weeks vs untreated controls (100% = plants have died)
In short: (§3)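 Visual % scoring, roughly 3 weeks post-application, against untreated controls; 100% means plants died. Treatment went onto the soil covering sown seeds (sandy loam), as aqueous suspension or emulsion plus 0.5% additive.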

ALOMY [18] = test: Post-emergence action against ALOMY, 1.28 kg/ha; type: in vivo, Alopecurus myosuroides; details: dosage 1280 g/ha, visual rating about 3 weeks after treatment vs untreated controls
In short: (§4)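 Foliar application at the one-leaf stage: compound as WP or EC in water with 0.5% additive, sprayed at 600 L/ha. Plants are kept about 3 weeks in the greenhouse, then % herbicidal action is estimated visually (100% = death).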

ABUTH = test: Post-emergence action against ABUTH, 1.28 kg/ha; type: in vivo, Abutilon theophrasti; details: dosage 1280 g/ha, visual rating about 3 weeks after treatment vs untreated controls (100% = plants died)
In short: as §4

AMARE [19] = test: Pre-emergence action against AMARE, 1280 g/ha; type: in vivo, Amaranthus retroflexus; details: scored visually after about 3 weeks vs untreated controls (100% = plants have died)
In short: as §3

DIGSA [20] = test: Post-emergence action against DIGSA, 1.28 kg/ha; type: in vivo, Digitaria sanguinalis; details: dosage 1280 g/ha, visual rating about 3 weeks after treatment vs untreated controls
In short: as §4

ALOMY [21] = test: Pre-emergence action against ALOMY, 1280 g/ha; type: in vivo, Alopecurus myosuroides; details: visual scoring after about 3 weeks vs untreated controls, 100% = plants have died, 0% = like control plants
In short: as §3

VERPE [22] = test: Pre-emergence action at 320 g/ha against VERPE; type: in vivo, Veronica persica; details: visual scoring after about 3 weeks vs untreated controls
In short: as §2

ECHCG [23] = test: Pre-emergence action against ECHCG, 1280 g/ha; type: in vivo, Echinochloa crus-galli; details: visual scoring after about 3 weeks vs untreated controls, 100% = plants have died, 0% = like control plants
In short: as §3

AMARE [24] = test: Post-emergence action against AMARE, 1.28 kg/ha; type: in vivo, Amaranthus retroflexus; details: dosage 1280 g/ha, visual rating about 3 weeks after treatment vs untreated controls (100% = plants died)
In short: as §4

MATIN [25] = test: Post-emergence action against MATIN, 1.28 kg/ha; type: in vivo, Tripleurospermum inodorum (Matricaria inodora); details: dosage 1280 g/ha, visual rating about 3 weeks after treatment vs untreated controls (100% = plants died)
In short: as §4

ECHCG [26] = test: Post-emergence action against ECHCG, 1.28 kg/ha; type: in vivo, Echinochloa crus-galli; details: dosage 1280 g/ha, visual rating about 3 weeks after treatment vs untreated controls
In short: as §4

VERPE [27] = test: Post-emergence action against VERPE, 1.28 kg/ha; type: in vivo, Veronica persica; details: dosage 1280 g/ha, visual rating about 3 weeks after treatment vs untreated controls (100% = plants died)
In short: as §4

AVEFA [28] = test: Pre-emergence action at 320 g/ha against AVEFA; type: in vivo; details: visual scoring after about 3 weeks vs untreated controls
In short: as §2

SETVI [29] = test: Post-emergence action against SETVI, 1.28 kg/ha; type: in vivo, Setaria viridis; details: dosage 1280 g/ha, visual rating about 3 weeks after treatment vs untreated controls
In short: as §4

LOLRI [30] = test: Pre-emergence action against LOLRI, 1280 g/ha; type: in vivo, Lolium rigidum; details: visual scoring after about 3 weeks vs untreated controls, 100% = plants have died, 0% = like control plants
In short: as §3

VERPE [31] = test: Pre-emergence action against VERPE, 1280 g/ha; type: in vivo, Veronica persica; details: scored visually after about 3 weeks vs untreated controls (100% = plants have died)
In short: as §3

STEME = test: Pre-emergence action against STEME, 1280 g/ha; type: in vivo, Stellaria media; details: scored visually after about 3 weeks vs untreated controls (100% = plants have died)
In short: as §3

SETVI [32] = test: Pre-emergence action against SETVI, 1280 g/ha; type: in vivo, Setaria viridis; details: visual scoring after about 3 weeks vs untreated controls, 100% = plants have died, 0% = like control plants
In short: as §3

POAAN [33] = test: Pre-emergence action against POAAN, 1280 g/ha; type: in vivo, Poa annua; details: visual scoring after about 3 weeks vs untreated controls, 100% = plants have died, 0% = like control plants
In short: as §3

LOLRI [34] = test: Post-emergence action against LOLRI, 1.28 kg/ha; type: in vivo, Lolium rigidum; details: dosage 1280 g/ha, visual rating about 3 weeks after treatment vs untreated controls
In short: as §4

DIGSA [35] = test: Pre-emergence action against DIGSA, 1280 g/ha; type: in vivo, Digitaria sanguinalis; details: visual scoring after about 3 weeks vs untreated controls, 100% = plants have died, 0% = like control plants
In short: as §3

POAAN [36] = test: Post-emergence action against POAAN, 1.28 kg/ha; type: in vivo, Poa annua; details: dosage 1280 g/ha, visual rating about 3 weeks after treatment vs untreated controls
In short: as §4

SMILES: COC(=O)[C@@H](C)Oc1nn(-c2ccccc2F)c(-c2ccc(F)nc2)c1Br [VII-004, Methyl (2R)-2-{[4-bromo-1-(2-fluorophenyl)-5-(6-fluoropyridin-3-yl)-1H-pyrazol-3-yl]oxy}propanoate]
- Post-emergence action against ALOMY (ALOMY [1]): 90%
- pest or weed control at 320 g/ha (POLCO [2]; Fallopia convolvulus, 504 h): 90%
- pest or weed control at 320 g/ha (VIOTR [3]): 90%
- pest or weed control at 320 g/ha (AMARE [4]): 90%
- pest or weed control at 320 g/ha (SETVI [5]): 100%
- Post-emergence action against SETVI in % (SETVI [6]): 90%
- pest or weed control at 320 g/ha (VIOTR [7]; Viola tricolor, 504 h): 100%
- pest or weed control at 320 g/ha (LOLRI [8]; Lolium rigidum, 504 h): 80%
- Post-emergence action at 320 g/ha against ECHCG in % (ECHCG [9]): 90%
- pest or weed control at 320 g/ha (AMARE [10]; Amaranthus retroflexus, 504 h): 90%
- pest or weed control at 320 g/ha (MATIN [11]; Tripleurospermum inodorum, 504 h): 80%
- pest or weed control at 320 g/ha (ALOMY [12]; Alopecurus myosuroides, 504 h): 90%
- pest or weed control at 320 g/ha (POLCO [13]): 80%
- pest or weed control at 320 g/ha (AVEFA [14]): 90%
- pest or weed control at 320 g/ha (DIGSA [15]; Digitaria sanguinalis, 504 h): 100%
- pest or weed control at 320 g/ha (DIGSA [16]): 90%

SMILES: CCOC(=O)COc1nn(-c2ccccc2C)c(-c2ccc(F)nc2)c1Br [VII-056-a]
- Post-emergence action against ALOMY (ALOMY [1]): 90%
- Pre-emergence action against POLCO in % (POLCO [2]): 90%
- Pre-emergence action against MATIN (MATIN [17]): 100%
- Post-emergence action against ALOMY (ALOMY [18]): 100%
- Post-emergence action against ABUTH (ABUTH): 90%
- Post-emergence action against SETVI in % (SETVI [6]): 80%
- Pre-emergence action against VIOTR in % (VIOTR [7]): 100%
- Pre-emergence action against AMARE (AMARE [19]): 100%
- Pre-emergence action against LOLRI in % (LOLRI [8]): 90%
- Post-emergence action against DIGSA (DIGSA [20]): 100%
- Post-emergence action at 320 g/ha against ECHCG in % (ECHCG [9]): 80%
- Pre-emergence action against ALOMY (ALOMY [21]): 90%
- Pre-emergence action against VERPE in % (VERPE [22]): 100%
- Pre-emergence action against ECHCG (ECHCG [23]): 100%
- Pre-emergence action against AMARE in % (AMARE [10]): 100%
- Post-emergence action against AMARE (AMARE [24]): 100%
- Pre-emergence action against MATIN in % (MATIN [11]): 80%
- Post-emergence action against MATIN (MATIN [25]): 100%
- Pre-emergence action at 320 g/ha against ALOMY in % (ALOMY [12]): 100%
- Post-emergence action against ECHCG (ECHCG [26]): 100%
- Post-emergence action against VERPE (VERPE [27]): 100%
- Pre-emergence action against AVEFA in % (AVEFA [28]): 90%
- Post-emergence action against SETVI (SETVI [29]): 100%
- Pre-emergence action against LOLRI (LOLRI [30]): 90%
- Pre-emergence action against VERPE (VERPE [31]): 100%
- Pre-emergence action against STEME (STEME): 100%
- Pre-emergence action against SETVI (SETVI [32]): 100%
- Pre-emergence action against POAAN (POAAN [33]): 100%
- Pre-emergence action against DIGSA in % (DIGSA [15]): 100%
- Post-emergence action against LOLRI (LOLRI [34]): 100%
- Pre-emergence action against DIGSA (DIGSA [35]): 100%
- Post-emergence action against POAAN (POAAN [36]): 100%
